The values that follow come from PMC6897945, “CytA, a reductase in the cytorhodin biosynthesis pathway, inactivates anthracycline drugs in Streptomyces” (Communications Biology, 2019).

Values after ≈ are worked out from the molar mass of the structure shown. Where two headings read alike, the source gives them in different places.

One experiment relates to E. faecalis ATCC 29212. Put plainly: Antibacterial activity, broth dilution MIC. Type of experiment: cell-based. Conditions: Enterococcus faecalis. The procedure: (§1) The antibacterial activities of compounds 1–13 were assessed using twofold serial dilutions of antibacterial agents in MH broth, according to previously reported standard methods provided by Clinical and Laboratory Standards Institute (CLSI)[30]. These compounds were tested for their antibacterial activities against Bacillus subtilis BS01, Staphyloccocus aureus ATCC 29213, Staphyloccocus aureus 745524, Bacillus thuringiensis BT01, and Enterococcus faecalis ATCC 29212 using a broth dilution method.
(In general: Broth dilution looks for growth in wells or tubes with falling amounts of substance.)

A further experiment deals with B. subtilis BS01. The experiment can be described thus: Antibacterial activity, broth dilution MIC. Conditions: Bacillus subtilis. Type of experiment: cell-based. The procedure:
as §1

The subject of experiment [1] is Staphylococcus aureus ATCC 29213. Put plainly: Antibacterial activity, broth dilution MIC. Type of experiment: cell-based. The procedure: as §1
In experiment [2] the test system is Staphylococcus aureus 745524. The experiment can be described thus: Antibacterial activity, broth dilution MIC. Type of experiment: cell-based. The protocol:
as §1

Another experiment has as its system B. thuringiensis BT01. The experiment can be described thus: Antibacterial activity, broth dilution MIC. Type of experiment: cell-based. Conditions: Bacillus thuringiensis. The procedure:
as §1

A further experiment relates to CytA. Put plainly: Enzyme kinetics of CytA (formation of deglycosylation products, anaerobic). It is filed as biochemical, Streptomyces sp. SCSIO 1666. The note with it: substrate of CytA; 0.5 μM CytA, 20 μM NADH, anaerobic. The procedure:
Enzymatic reactions were carried out under anaerobic conditions in an anaerobic workstation (Don Whitley Scientific A45) containing a gas phase of N2/H2/CO2 (80:10: 10%, by vol.). ^1H, ^13C, and 2D (COSY, HMQC, HMBC and NOESY) NMR spectra were recorded at 25 °C with an Avance 700 MHz spectrometer instruments (Bruker). High-resolution mass spectra were obtained with a Maxis quadrupole-time-of-flight mass spectrometer (Bruker).
To validate the in vitro biochemical activities of CytA, we overexpressed and purified this enzyme as a soluble N-terminally His6-tagged protein from E. coli (Fig. 2a). Tris-Cl buffer was made O2 free by boiling, followed by cooling under N2 flow; NADH stock solution (dissolved in Tris-Cl), substrate stock solution (dissolved in DMSO), and enzyme solution (dissolved in Tris-Cl supplemented with 10% glycerin) were subjected to O2 eliminating process in the anaerobic workstations for at least two cycles (40 min for one cycle). CytA enzymatic activity was tested in 50 μL volume containing 50 mM Tris-Cl (pH 8.0), 25 μM substrate, 0.5 μM CytA, and 20 μM NADH, at 37 °C for 30 min. The reaction was quenched with the addition to 2 volumes MeOH. After centrifugation to remove protein, supernatants were analyzed with Agilent HPLC equipment using a Phenomenex Prodigy ODS column S5 (150 × 4.60 mm, 5 μ) and UV detection at 254 and 500 nm. Samples were eluted with a gradient elution of phase A containing 0.1% TFA in ddH2O and phase B containing 100% acetonitrile, at a flow rate of 1 mL/min.
Kinetic analyses of CytA with putative substrates 6–10, daunorubicin, doxorubicin, idarubicin, epirubicin and pirarubicin, involved a reaction volume of 20 μL consisting of 50 mM Tris-Cl (pH 8.0), 0.5 μM CytA, 20 μM NADH, […]
All assays were performed in triplicate and Km and Vmax values were calculated on the basis of curve fitting to the Michaelis-Menten equation: v = Vmax *[S]/(Km + [S]) (Supplementary Fig. 7).
For kinetics of CytA, Origin 9.0 (OriginLab Co.) was used to analyze on the basis of curve fitting to the Michaelis-Menten equation. Experiments were performed in triplicate independently. For antibacterial activity, experiments were performed in triplicate using 96-well plates.

Setting [3] is: ATCC29212, E. faecalis ATCC 29212, triplicate, read-out: MIC values, EF.
The mark [4] stands for this setting: B. subtilis BS01, triplicate, read-out: MIC values, BS.
The mark [5] stands for this setting: ATCC29213, Staphylococcus aureus ATCC 29213, triplicate, read-out: MIC values, SA1.
[6] abbreviates: Staphylococcus aureus 745524, triplicate, read-out: MIC values, SA2.
The mark [7] stands for this setting: B. thuringiensis BT01, triplicate, read-out: MIC values, BT.

As a reminder, the MIC is the least concentration at which growth counts as inhibited. In the case of `CC1(C)S[C@@H]2[C@H](NC(=O)[C@H](N)c3ccccc3)C(=O)N2[C@H]1C(=O)O` [Amp, Ampicillin, reference compound], the MIC in the experiment with E. faecalis ATCC 29212 (setting [3]) was determined as 2 µg/mL (≈ 5.72 µM); in the experiment on B. subtilis BS01 (setting [4]), 4 µg/mL (≈ 11.4 µM); in experiment [1] (setting [5]), 4 µg/mL (≈ 11.4 µM); in experiment [2] (setting [6]) it was 8 µg/mL (≈ 22.9 µM); in the experiment on B. thuringiensis BT01 (setting [7]) it was 4 µg/mL (≈ 11.4 µM).
Take `CC[C@@]1(O)CCc2c(O)c3c(c(O)c2C1)C(=O)c1cccc(O)c1C3=O` [Compound 12]: the MIC (in the experiment with E. faecalis ATCC 29212 (setting [3]); in the experiment with B. subtilis BS01 (setting [4]); in experiment [1] (setting [5]); in experiment [2] (setting [6]); in the experiment with B. thuringiensis BT01 (setting [7])) was above 32 µg/mL throughout.
`CC[C@@]1(O)CCc2c(O)c3c(c(O)c2[C@H]1O)C(=O)c1cccc(O)c1C3=O` [Compound 13]: the MIC (in the experiment on E. faecalis ATCC 29212 (setting [3]); in the experiment with B. subtilis BS01 (setting [4]); in experiment [1] (setting [5]); in experiment [2] (setting [6]); in the experiment on B. thuringiensis BT01 (setting [7])) was above 32 µg/mL in each case.
One may read the Km as the concentration of substrate that gives half-maximal velocity. Usually kcat stands for the maximal rate divided by the concentration of active sites. For the compound `COc1cccc2c1C(=O)c1c(O)c3c(c(O)c1C2=O)C[C@@](O)(C(C)=O)C[C@@H]3O[C@H]1C[C@H](N)[C@H](O)[C@H](C)O1` [Compound 22, daunorubicin, reference compound], in the experiment on CytA, the Km worked out at 36.3 µM and the kcat stood at 0.00967 s⁻¹.
On the same counts, the results for `CC(=O)[C@]1(O)Cc2c(O)c3c(c(O)c2[C@@H](O[C@H]2C[C@H](N)[C@H](O)[C@H](C)O2)C1)C(=O)c1ccccc1C3=O` [Compound 24, idarubicin, reference compound] are 28.5 µM and 0.00733 s⁻¹.
On the same counts, the results for `COc1cccc2c1C(=O)c1c(O)c3c(c(O)c1C2=O)C[C@@](O)(C(=O)CO)C[C@@H]3O[C@H]1C[C@H](N)[C@@H](O)[C@H](C)O1` [Compound 25, epirubicin, reference compound] are 38.6 µM and 0.00883 s⁻¹.
`COc1cccc2c1C(=O)c1c(O)c3c(c(O)c1C2=O)C[C@@](O)(C(=O)CO)C[C@@H]3O[C@H]1C[C@H](N)[C@H](O[C@@H]2CCCCO2)[C@H](C)O1` [Compound 26, pirarubicin, reference compound]: in the experiment with CytA, the Km was 49.3 µM and the catalytic constant (kcat) stood at 0.0123 s⁻¹.
Take `CN[C@H](CC(C)C)C(=O)N[C@H]1C(=O)N[C@@H](CC(N)=O)C(=O)N[C@H]2C(=O)N[C@H]3C(=O)N[C@H](C(=O)N[C@H](C(=O)O)c4cc(O)cc(O)c4-c4cc3ccc4O)[C@H](O)c3ccc(c(Cl)c3)Oc3cc2cc(c3O[C@@H]2O[C@H](CO)[C@@H](O)[C@H](O)[C@H]2O[C@H]2C[C@](C)(N)[C@H](O)[C@H](C)O2)Oc2ccc(cc2Cl)[C@H]1O` [Van, Vancomycin, reference compound]: the MIC in the experiment on E. faecalis ATCC 29212 (ATCC29212, read-out: MIC values, EF) is 0.25 µg/mL (≈ 0.173 µM); in the experiment with B. subtilis BS01 (BS01, read-out: MIC values, BS) it was 0.5 µg/mL (≈ 0.345 µM); in experiment [1] (Staphylococcus aureus, ATCC29213, read-out: MIC values, SA1), 0.5 µg/mL (≈ 0.345 µM); in experiment [2] (Staphylococcus aureus, 745524, read-out: MIC values, SA2) it was 1 µg/mL (≈ 0.69 µM); in the experiment with B. thuringiensis BT01 (BT01, read-out: MIC values, BT), 0.5 µg/mL (≈ 0.345 µM).
